Structures can show the parent of a compound that is named as a salt.
Molecular target: HSET full length protein (Homo sapiens (Human), UniProt Q9BW19)
Assay: HSET ADP-Glo Assay S - 3 μM ATP
Format: biochemical
Conditions: 5 nM HSET, 70 μg/mL microtubule, 80 min at rt, read-out: COMBINED HSET ADP GLO IC50
Procedure, shortened: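 ADP-Glo luminescence read-out: ATPase reaction at 3 μM ATP, 80 min at room temperature, after a 10 min compound preincubation. Enzyme was full-length human HSET at 5 nM, stimulated by 70 μg/mL paclitaxel-stabilised bovine microtubules in HEPES pH 6.8 buffer with MgCl2, EGTA, Triton X-100 and DTT.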

Sequence of HSET full length protein (Q9BW19 whole entry): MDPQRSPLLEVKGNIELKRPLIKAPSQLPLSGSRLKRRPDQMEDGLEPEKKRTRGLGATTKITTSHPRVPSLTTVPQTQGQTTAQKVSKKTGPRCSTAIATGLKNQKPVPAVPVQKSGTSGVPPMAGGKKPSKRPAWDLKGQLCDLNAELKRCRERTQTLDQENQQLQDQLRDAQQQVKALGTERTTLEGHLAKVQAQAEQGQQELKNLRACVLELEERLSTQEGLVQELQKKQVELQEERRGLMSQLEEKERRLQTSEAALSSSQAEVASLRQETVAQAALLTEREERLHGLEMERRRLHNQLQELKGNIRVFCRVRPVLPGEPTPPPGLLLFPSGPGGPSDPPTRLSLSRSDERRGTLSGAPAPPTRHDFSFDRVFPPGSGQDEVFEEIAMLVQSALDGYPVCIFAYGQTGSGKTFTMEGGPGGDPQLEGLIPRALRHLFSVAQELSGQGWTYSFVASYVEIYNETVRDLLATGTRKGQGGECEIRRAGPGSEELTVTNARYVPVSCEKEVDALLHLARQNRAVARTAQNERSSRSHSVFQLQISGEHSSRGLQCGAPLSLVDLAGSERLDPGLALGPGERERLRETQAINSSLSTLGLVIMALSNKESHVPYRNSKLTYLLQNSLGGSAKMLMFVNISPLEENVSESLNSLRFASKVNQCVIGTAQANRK

Structure (SMILES)	IC50 [µM]
CCOC(=O)c1cc(NC(=O)CCNc2nccc3ccc(-c4noc(C)n4)cc23)n[nH]1 [Example 135, Ethyl-3-(3-((7-(5-methyl-1,2,4-oxadiazol-3-yl)isoquinolin-1-yl)amino)propanamido)-1 H-pyrazole-5-carboxylate]	0.428
Cc1nc(-c2cc(C(=O)NCCC(=O)Nc3nc(C)c(C(=O)OCCCCCCO)s3)cc(C(F)(F)F)c2)no1 [Example 136, 6-Hydroxyhexyl 4-methyl-2-(3-(3-(5-methyl-1,2,4-oxadiazol-3-yl)-5-(trifluoromethyl)benzamido)propanamido)thiazole-5-carboxylate]	0.737
CCCCc1sc(C(=O)NCCNc2nccc3ccc(-c4noc(C)n4)cc23)nc1C [Example 137, 5-Butyl-4-methyl-N-(2-((7-(5-methyl-1,2,4-oxadiazol-3-yl)isoquinolin-1-yl)amino)ethyl)thiazole-2-carboxamide formate]	0.778
CCOC(=O)c1sc(C(=O)NCCNC(=O)c2cccc(-c3noc(CC)n3)c2)nc1C [Example 140, Ethyl-2-((2-(3-(5-ethyl-1,2,4-oxadiazol-3-yl)benzamido)ethyl)carbamoyl)-4-methylthiazole-5-carboxylate]	5.04
CCOC(=O)c1sc(C(=O)NCCNC(=O)c2cccc(-c3noc(C)n3)c2)nc1C [Example 141, Ethyl-4-methyl-2-((2-(3-(5-methyl-1,2,4-oxadiazol-3-yl)benzamido)ethyl)carbamoyl)thiazole-5-carboxylate]	0.405
CCOC(=O)c1sc(NC(=O)C[C@@H](C)NC(=O)c2cccc(-c3noc(C)n3)c2)nc1C [Example 142, Ethyl-(R)-4-methyl-2-(3-(3-(5-methyl-1,2,4-oxadiazol-3-yl)benzamido)butanamido)thiazole-5-carboxylate]	0.288
CCCOC(=O)c1sc(NC(=O)CC2(NC(=O)c3cc(Cl)cc(-c4noc(C)n4)c3)CCN(C)CC2)nc1C [Example 144, Propyl-2-(2-(4-(3-chloro-5-(5-methyl-1,2,4-oxadiazol-3-yl)benzamido)-1-methylpiperidin-4-yl)acetamido)-4-methylthiazole-5-carboxylate]	9.2
CCOC(=O)c1sc(NC(=O)C(C)CNC(=O)c2cccc(-c3noc(C)n3)c2)nc1C (stereo not drawn) [Example 145, Ethyl-4-methyl-2-(2-methyl-3-(3-(5-methyl-1,2,4-oxadiazol-3-yl)benzamido)propanamido)thiazole-5-carboxylate]	5.48
CCOC(=O)c1sc(NC(=O)CC(NC(=O)c2cccc(-c3noc(C)n3)c2)C2CCNCC2)nc1C (stereo not drawn) [Example 146, 4-(3-((5-(ethoxycarbonyl)-4-methylthiazol-2-yl)amino)-1-(3-(5-methyl-1,2,4-oxadiazol-3-yl)benzamido)-3-oxopropyl)piperidin-1-ium formate]	0.26
CCOC(=O)c1sc(NC(=O)CC(NC(=O)c2cccc(-c3noc(C)n3)c2)C2CCN(C)CC2)nc1C (stereo not drawn) [Example 147, 4-(3-((5-(ethoxycarbonyl)-4-methylthiazol-2-yl)amino)-1-(3-(5-methyl-1,2,4-oxadiazol-3-yl)benzamido)-3-oxopropyl)-1-methylpiperidin-1-ium formate]	0.291
CCOC(=O)c1sc(NC(=O)[C@H]2CNC[C@@H]2NC(=O)c2cccc(-c3noc(C)n3)c2)nc1C [Example 149, Ethyl-4-methyl-2-[[(3S,4R)-4-[[3-(5-methyl-1,2,4-oxadiazol-3-yl)benzoyl]amino]pyrrolidine-3-carbonyl]amino]thiazole-5-carboxylate; formic acid]	2.79
CCCOC(=O)c1sc(NC(=O)C[C@@H](CCCNC)NC(=O)c2cccc(-c3noc(C)n3)c2)nc1C [Example 153, Propyl-(R)-4-methyl-2-(3-(3-(5-methyl-1,2,4-oxadiazol-3-yl)benzamido)-6-(methylamino)hexanamido)thiazole-5-carboxylate]	0.285
CNCCC[C@@H](CC(=O)Nc1nc(C)c(C(C)(C)C)s1)NC(=O)c1cc(Cl)cc(-c2noc(C)n2)c1 [Example 157, (S)-N-(1-((5-(tert-butyl)-4-methylthiazol-2-yl)amino)-6-(methylamino)-1-oxohexan-3-yl)-3-chloro-5-(5-methyl-1,2,4-oxadiazol-3-yl)benzamide]	0.373
CCCOC(=O)c1sc(NC(=O)C[C@H](CCN(C)C)NC(=O)c2cccc(-c3noc(C)n3)c2)nc1C [Example 162, Propyl (S)-2-(5-(dimethylamino)-3-(3-(5-methyl-1,2,4-oxadiazol-3-yl)benzamido)pentanamido)-4-methylthiazole-5-carboxylate]	0.558

Stronger by IC50, values ahead:

IC50 [µM]	Structure (SMILES)
0.011	Cc1nc(-c2ccc3ccnc(NCCC(=O)Nc4cc(C(=O)OC5CCCC5)n(C)n4)c3c2)no1 [Example 138, Cyclopentyl-1-methyl-3-(3-((7-(5-methyl-1,2,4-oxadiazol-3-yl)isoquinolin-1-yl)amino)propanamido)-1 H-pyrazole-5-carboxylate]
0.061	CCOC(=O)c1sc(NC(=O)C[C@H](C)NC(=O)c2cccc(-c3noc(C)n3)c2)nc1C [Example 143, Ethyl-(S)-4-methyl-2-(3-(3-(5-methyl-1,2,4-oxadiazol-3-yl)benzamido)butanamido)thiazole-5-carboxylate]
0.133	CCOC(=O)c1sc(NC(=O)C[C@H](CN)NC(=O)c2cccc(-c3noc(C)n3)c2)nc1C [Example 148, Ethyl-2-[[(3R)-4-amino-3-[[3-(5-methyl-1,2,4-oxadiazol-3-yl)benzoyl]amino]butanoyl]amino]-4-methyl-thiazole-5-carboxylate]
0.057	CCOC(=O)c1sc(NC(=O)C[C@H](CCCN)NC(=O)c2cccc(-c3noc(C)n3)c2)nc1C [Example 150, ethyl (S)-2-(6-amino-3-(3-(5-methyl-1,2,4-oxadiazol-3-yl)benzamido)hexanamido)-4-methylthiazole-5-carboxylate]
0.013	CCCOC(=O)c1sc(NC(=O)C[C@H](CCCN)NC(=O)c2cccc(-c3noc(C)n3)c2)nc1C [Example 151, Popyl-(S)-2-(6-amino-3-(3-(5-methyl-1,2,4-oxadiazol-3-yl)benzamido)hexanamido)-4-methylthiazole-5-carboxylate]
0.019	CCCOC(=O)c1sc(NC(=O)C[C@H](CCCNC)NC(=O)c2cccc(-c3noc(C)n3)c2)nc1C [Example 152, Propyl 4-methyl-2-[[(3S)-6-(methylamino)-3-[[3-(5-methyl-1,2,4-oxadiazol-3-yl)benzoyl]amino]hexanoyl]amino]thiazole-5-carboxylate]
0.006	CNCCC[C@@H](CC(=O)Nc1nc(C)c(C(=O)OC(C)(C)C)s1)NC(=O)c1cccc(-c2noc(C)n2)c1 [Example 154, Tert-butyl 4-methyl-2-[[(3S)-6-(methylamino)-3-[[3-(5-methyl-1,2,4-oxadiazol-3-yl)benzoyl]amino]hexanoyl]amino]thiazole-5-carboxylate]
0.011	CNCCC[C@@H](CC(=O)Nc1nc(C)c(C(=O)OC2CCCC2)s1)NC(=O)c1cccc(-c2noc(C)n2)c1 [Example 155, Cyclopentyl (S)-4-methyl-2-(3-(3-(5-methyl-1,2,4-oxadiazol-3-yl)benzamido)-6-(methylamino)hexanamido)thiazole-5-carboxylate]
0.053	CNCCC[C@@H](CC(=O)Nc1nc(C)c(C(=O)OC(C)C)s1)NC(=O)c1cccc(-c2noc(C)n2)c1 [Example 156, Isopropyl (S)-4-methyl-2-(3-(3-(5-methyl-1,2,4-oxadiazol-3-yl)benzamido)-6-(methylamino)hexanamido)thiazole-5-carboxylate]
0.011	CCCOC(=O)c1sc(NC(=O)C[C@H](CCCN(C)C)NC(=O)c2cccc(-c3noc(C)n3)c2)nc1C [Example 158, Propyl (S)-2-(6-(dimethylamino)-3-(3-(5-methyl-1,2,4-oxadiazol-3-yl)benzamido)hexanamido)-4-methylthiazole-5-carboxylate]
0.021	CCCOC(=O)c1sc(NC(=O)C[C@H](CCCN2CCOCC2)NC(=O)c2cccc(-c3noc(C)n3)c2)nc1C [Example 159, Propyl (S)-4-methyl-2-(3-(3-(5-methyl-1,2,4-oxadiazol-3-yl)benzamido)-6-morpholinohexanamido)thiazole-5-carboxylate]
0.013	CCCOC(=O)c1sc(NC(=O)C[C@H](CCCN)Nc2nccc3ccc(-c4noc(C)n4)cc23)nc1C [Example 163, Propyl (S)-2-(6-amino-3-((7-(5-methyl-1,2,4-oxadiazol-3-yl)isoquinolin-1-yl)amino)hexanamido)-4-methylthiazole-5-carboxylate]
0.116	Cc1nc(-c2ccc3ccnc(N[C@@H](CCCN)CC(=O)Nc4nc(C)c(C(C)(C)C)s4)c3c2)no1 [Example 164, (S)-6-amino-N-(5-(tert-butyl)-4-methylthiazol-2-yl)-3-((7-(5-methyl-1,2,4-oxadiazol-3-yl)isoquinolin-1-yl)amino)hexanamide formate]
0.023	CNCCC[C@@H](CC(=O)Nc1nc(C)c(C(=O)OC2CCCC2)s1)Nc1nccc2ccc(-c3noc(C)n3)cc12 [Example 165, Cyclopentyl (S)-4-methyl-2-(3-((7-(5-methyl-1,2,4-oxadiazol-3-yl)isoquinolin-1-yl)amino)-6-(methylamino)hexanamido)thiazole-5-carboxylate]
0.011	CNCCC[C@@H](CC(=O)Nc1nc(C)c(C(=O)OC(CF)CF)s1)Nc1nccc2ccc(-c3noc(C)n3)cc12 [Example 166, 1,3-Difluoropropan-2-yl (S)-4-methyl-2-(3-((7-(5-methyl-1,2,4-oxadiazol-3-yl)isoquinolin-1-yl)amino)-6-(methylamino)hexanamido)thiazole-5-carboxylate]
0.01	CNCCC[C@@H](CC(=O)Nc1nc(C)c(C(=O)OC(C)C)s1)Nc1nccc2ccc(-c3noc(C)n3)cc12 [Example 167, Isopropyl (S)-4-methyl-2-(3-((7-(5-methyl-1,2,4-oxadiazol-3-yl)isoquinolin-1-yl)amino)-6-(methylamino)hexanamido)thiazole-5-carboxylate]
